According to patent US11066414B2, “Cot modulators and methods of use thereof” (Gilead Sciences, Inc., priority 2015, dated 2021):
Read-outs that look alike come from different tables or passages of the source.

Experiments:
Human Cot = Human Cot (Homo sapiens (Human), UniProt P41279); experiment: High Throughput Cot Biochemical Assay; conditions: for IC50/EC50 [nM]: IC50 (Cot): first value of the cell IC50/EC50, recombinant human Cot catalytic domain, TR-FRET
EGFR = EGFR (Homo sapiens (Human), UniProt P00533); experiment: High Throughput EGFR Biochemical Assay; conditions: Human EGFR cytoplasmic domain, TR-FRET
Chain of EGFR (P00533 669-1210): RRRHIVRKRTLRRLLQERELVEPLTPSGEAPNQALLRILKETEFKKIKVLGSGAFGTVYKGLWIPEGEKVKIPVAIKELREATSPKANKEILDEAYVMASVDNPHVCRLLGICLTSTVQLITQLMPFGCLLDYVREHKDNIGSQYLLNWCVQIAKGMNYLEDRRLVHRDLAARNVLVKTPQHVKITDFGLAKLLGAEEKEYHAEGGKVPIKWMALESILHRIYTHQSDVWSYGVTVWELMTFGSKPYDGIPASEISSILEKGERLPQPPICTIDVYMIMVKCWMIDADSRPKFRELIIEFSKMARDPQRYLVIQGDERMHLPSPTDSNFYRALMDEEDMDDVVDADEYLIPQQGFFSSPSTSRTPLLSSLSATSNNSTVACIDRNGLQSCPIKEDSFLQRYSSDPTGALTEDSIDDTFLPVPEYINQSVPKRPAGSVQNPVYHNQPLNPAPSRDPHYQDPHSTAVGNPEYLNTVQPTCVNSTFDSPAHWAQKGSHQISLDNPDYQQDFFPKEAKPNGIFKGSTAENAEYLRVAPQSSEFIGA
Method: Example 42: High Throughput EGFR Biochemical Assay
EGFR activity was measured using KinEASE (Cisbio), a time-resolved fluorescence resonance energy transfer (TR-FRET) immunoassay. In this assay, EGFR-catalyzes the phosphorylation of a universal Tyrosine kinase peptide substrate labeled with XL665. Europium conjugated phosphor-tyrosine specific antibody binds the resulting phosphorylated peptide. Formation of phosphorylated peptide is quantified by TR-FRET with Europium as the donor and XL665 the acceptor. The assay was performed in two main steps. The first step is the kinase reaction step and the second step is the detection step with TR-FRET reagents. In brief, test compounds 1:3 serially diluted in DMSO were delivered into Corning white, low volume, non-binding 384 well plates using the Echo 550 acoustic liquid dispenser (Labcyte®). […] After 60 min of incubation at room temperature, 10 μL of Stop and Detect Solution (1:400 Europium Cryptate labeled anti-phosphorylated peptide antibody solution and 125 nM strepavidin-XL665 Tracer in a 50 mM Hepes pH 7.0 detection buffer containing sufficient EDTA) was added.

TNFα = experiment: Cot Monocyte TNFα Cell Based Assay; conditions: for IC50/EC50 [nM]: EC50 (TNFα): second value of the cell IC50/EC50, TNFα by TR-FRET
[1] = Homo sapiens, Monocyte, read-out: EC50 TNF, LPS-stimulated human monocytes, TNFα
[2] = IC50 HTRF, Cot HTRF (TR-FRET KinEASE) biochemical assay, 400 μM ATP
[3] = Homo sapiens, Monocyte, read-out: EC50 TNF, LPS-stimulated human monocytes, TNFα TR-FRET
[4] = read-out: IC50 HTRF, Cot HTRF (TR-FRET KinEASE) biochemical assay, 400 μM ATP
[5] = read-out: EC50 TNF, LPS-stimulated human monocytes, TNFα TR-FRET

Chain of Human Cot (P41279 30-397): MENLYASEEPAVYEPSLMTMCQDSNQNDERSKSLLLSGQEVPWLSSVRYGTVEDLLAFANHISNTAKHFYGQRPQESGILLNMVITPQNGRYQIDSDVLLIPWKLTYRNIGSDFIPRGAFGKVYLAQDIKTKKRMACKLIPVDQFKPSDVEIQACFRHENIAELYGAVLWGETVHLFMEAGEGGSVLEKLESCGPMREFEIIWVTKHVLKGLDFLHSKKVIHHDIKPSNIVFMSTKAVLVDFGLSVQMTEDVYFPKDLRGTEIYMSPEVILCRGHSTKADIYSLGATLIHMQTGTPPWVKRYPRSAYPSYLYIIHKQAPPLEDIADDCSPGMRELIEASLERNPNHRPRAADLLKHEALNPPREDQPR

Compound | IC50 (Human Cot; [2]) [nM] | EC50 (TNFα; [3]) [nM] | other results
CCN1CCC(n2cc([C@@H](Nc3cc(Cl)c4ncc(C#N)c(Nc5ccc(F)c(Cl)c5)c4c3)c3cccnc3)nn2)CC1 [Example 362, (S)-8-chloro-4-((3-chloro-4-fluorophenyl)amino)-6-(((1-(1-ethylpiperidin-4-yl)-1H-1,2,3-triazol-4-yl)(pyridin-3-yl)methyl)amino)-quinoline-3-carbonitrile] | – | – | IC50 (Human Cot; IC50 HTRF, Cot HTRF (TR-FRET) biochemical assay): 1 nM; IC50/EC50 [nM]: IC50 (Cot) (Human Cot; 400 μM ATP): 1 nM; IC50 (EGFR): 3980 nM; EC50 (TNFα; [1]): 46 nM; IC50/EC50 [nM]: EC50 (TNFα) (TNFα; LPS-stimulated human monocytes): 46 nM
Cn1cc([C@@H](Nc2cc(Cl)c3ncc(C#N)c(Nc4ccc(F)c(Cl)c4)c3c2)c2cccnc2)nn1 [Example 406, (S)-8-chloro-4-((3-chloro-4-fluoro-phenyl)amino)-6-(((1-methyl-1H-1,2,3-triazol-4-yl)(pyridin-3-yl)-methyl)amino)quinoline-3-carbonitrile] | – | – | IC50/EC50 [nM]: IC50 (Cot) (Human Cot; 400 μM ATP): 3 nM; IC50 (Human Cot; read-out: IC50 HTRF, Cot HTRF (TR-FRET) biochemical assay): 3 nM; IC50 (EGFR): > 10000 nM; EC50 (TNFα; [1]): 102 nM; IC50/EC50 [nM]: EC50 (TNFα) (TNFα; LPS-stimulated human monocytes): 102 nM
Cc1nc(F)ccc1[C@H](Nc1cc(Cl)c2ncc(C#N)c(NCC(C)(C)C)c2c1)c1nnn(C2(C(F)F)CC2)c1C#N [Example 974, (S)-8-chloro-6-(((5-cyano-1-(1-(difluoromethyl)cyclopropyl)-1H-1,2,3-triazol-4-yl)(6-fluoro-2-methylpyridin-3-yl)methyl)amino)-4-(neopentylamino)quinoline-3-carbonitrile] | 11 | 60 | –
Cc1nc(F)ccc1[C@H](Nc1cc(-c2cncnc2)c2ncc(C#N)c(NCC(C)(C)C)c2c1)c1cn(C2(C(F)F)CC2)nn1 [Example 976] | – | – | IC50 (Human Cot; [4]): 21 nM; EC50 (TNFα; [5]): 276 nM
COc1ccc(C(Nc2cc(Cl)c3ncc(C#N)c(NCC(C)(C)C)c3c2)c2cn(C3(C(F)(F)F)CC3)nn2)c(C)n1 (stereo not shown) [Example 978, 8-chloro-6-(((6-methoxy-2-methylpyridin-3-yl)(1-(1-(trifluoromethyl)cyclopropyl)-1H-1,2,3-triazol-4-yl)methyl)amino)-4-(neopentylamino)quinoline-3-carbonitrile] | 9 | 303 | –
CC(=O)c1cc(N[C@H](c2cn(C3(C(F)F)CC3)nn2)c2ccc(F)nc2C)cc2c(NCC(C)(C)C)c(C#N)cnc12 [Example 981, (S)-8-acetyl-6-(((1-(1-(difluoromethyl)cyclopropyl)-1H-1,2,3-triazol-4-yl)(6-fluoro-2-methylpyridin-3-yl)methyl)amino)-4-(neopentylamino)quinoline-3-carbonitrile] | 4 | 20 | –
Cc1nc(F)ccc1[C@H](Nc1cc(Cl)c2ncc(C#N)c(NCC(C)(C)C)c2c1F)c1cn(C2(C(F)F)CC2)nn1 [Example 983, (S)-8-chloro-6-(((1-(1-(difluoromethyl)cyclopropyl)-1H-1,2,3-triazol-4-yl)(6-fluoro-2-methylpyridin-3-yl)methyl)amino)-5-fluoro-4-(neopentylamino)quinoline-3-carbonitrile] | 9640 | 1000 | –
(S)-6-(((1-(1,1′-bi(cyclopropan)]-1-yl)-1H- 1,2,3-triazol-4-yl)(1-methoxylsoquinolin- 5-yl)methyl)amino)-8-chloro-4- (neopentylamino)quinoline-3-carbonitrile [Example 931] | – | – | IC50 (Human Cot; [4]): 10 nM; EC50 (TNFα; [5]): 134 nM

The next lines start with results.

IC50 (Human Cot; [2]) [nM] | EC50 (TNFα; [3]) [nM] | Compound | other results
1230 | 1000 | Cc1nc(F)ccc1[C@H](Nc1cc(Cl)c2ncc(C#N)c(NCC(C)(C)C)c2c1Br)c1nnn(C2(C(F)F)CC2)c1F [Example 975, (S)-5-bromo-8-chloro-6-(((1-(1-(difluoromethyl)cyclopropyl)-5-fluoro-1H-1,2,3-triazol-4-yl)(6-fluoro-2-methylpyridin-3-yl)methyl)amino)-4-(neopentylamino)quinoline-3-carbonitrile] | –
244 | 1000 | Cc1nc(F)ccc1[C@@H](c1cn(C2(C(F)(F)F)CC2)nn1)N(C)c1cc(Cl)c2ncc(C#N)c(NCC(C)(C)C)c2c1 [Example 979, (S)-8-chloro-6-(((6-fluoro-2-methylpyridin-3-yl)(1-(1-(trifluoromethyl)cyclopropyl)-1H-1,2,3-triazol-4-yl)methyl)(methyl)amino)-4-(neopentylamino)quinoline-3-carbonitrile] | –
5 | 141 | Cc1nc(F)ccc1[C@H](Nc1cc(Cl)c2ncc(C#N)c(NCC(C)(C)C)c2c1)c1cn(CCCO)nn1 [Example 986, (S)-8-chloro-6-(((6-fluoro-2-methylpyridin-3-yl)(1-(3-hydroxypropyl)-1H-1,2,3-triazol-4-yl)methyl)amino)-4-(neopentylamino)quinoline-3-carbonitrile] | –
